Series [1] in a line: Light absorption characteristics in a solution state (UV-Vis-NIR spectrometer). It is filed as physicochemical. Particulars: for UV-vis: λmax: CH2Cl2 Solution, in synthesis example; for λmax (nm) (solution): 1×10^−5 M. On the procedure: The compounds according to Synthesis Examples 1 to 5 in dichloromethane, the compounds according to Comparative Synthesis Examples 1 and 2 in toluene, and the compound of Comparative Synthesis Example 3 in chloroform are respectively dissolved at a concentration of 1×10^−5 M to prepare solutions, and light absorption characteristics of the compounds in a solution state are evaluated. The light absorption characteristics are evaluated by using an UV-Vis-NIR spectrometer (UV-3600 Plus, Shimadzu Corp.) to measure a maximum absorption wavelength (λmax).

The nature of series [2]: Light absorption characteristics in a thin film state (UV-Vis-NIR spectrometer). The following applies: thin film spin-coated from chloroform on glass substrate. It is filed as physicochemical. Here is the method:
In addition, the compounds of Synthesis Examples 1 to 5 are respectively dissolved in chloroform and coated on a glass substrate at 800 rpm for 60 seconds and at 400 rpm for 5 seconds with a spin coater, and the light absorption characteristics thereof in a thin film state are evaluated. The light absorption characteristics are evaluated by measuring a maximum absorption wavelength (λmax) by using a UV-Vis-NIR spectrometer (UV-3600 Plus, Shimadzu Corp.).

In the case of `CCCCCCOc1cc(-c2c3c(c(-c4cc(OCCCCCC)c(-c5cc6c(s5)c5sc(CCCCCC)cc5n6CCCCCC)s4)c4n[se]nc24)N=[Se]=N3)sc1-c1cc2c(s1)c1sc(CCCCCC)cc1n2CCCCCC` [Synthesis Example 5], the “UV-vis: λmax” value in series [1] is listed as 1376 nm. Besides, the “λmax (nm) (solution)” value in series [1] (in dichloromethane) came out at 1376 nm. For the same molecule, in series [2], the “λmax (nm) (thin film)” value was found to be 1285 nm.
On to `CCCCCCCCC1(CCCCCCCC)c2ccccc2-c2ccc(-c3ccc(-c4c5c(c(-c6ccc(-c7ccc8c(c7)C(CCCCCCCC)(CCCCCCCC)c7ccccc7-8)s6)c6nsnc46)N=S=N5)s3)cc21` [Comparative Synthesis Example 2, reference compound], for which the “λmax (nm) (solution)” value in series [1] (in toluene) stood at 848 nm.
Consider `CCCCCCOc1cc(-c2c3nsnc3c(-c3cc(OCCCCCC)c(-c4cc5c(s4)c4sc(CCCCCC)cc4n5CCCCCC)s3)c3nc4c5ncccc5c5cccnc5c4nc23)sc1-c1cc2c(s1)c1sc(CCCCCC)cc1n2CCCCCC` [Synthesis Example 3], for which the “UV-vis: λmax” value in series [1] was determined as 1143 nm. The “λmax (nm) (solution)” value in series [1] (in dichloromethane) amounted to 1143 nm. Also, the “λmax (nm) (thin film)” value in series [2] was 1166 nm.
On to `CCCCCCOc1cc(-c2c3c(c(-c4cc(OCCCCCC)c(-c5cc6c(s5)c5sc(CCCCCC)cc5n6CCCCCC)s4)c4nsnc24)N=[Se]=N3)sc1-c1cc2c(s1)c1sc(CCCCCC)cc1n2CCCCCC` [Synthesis Example 1], for which the “UV-vis: λmax” value in series [1] is 1256 nm. The “λmax (nm) (solution)” value in series [1] (in dichloromethane) is listed as 1256 nm. Further, the “λmax (nm) (thin film)” value in series [2] is recorded as 1226 nm.
For the molecule `CCCCCCOc1cc(-c2c3c(c(-c4cc(OCCCCCC)c(-c5cc6c(s5)c5sc(CCCCCC)cc5n6CCCCCC)s4)c4nsnc24)N=S=N3)sc1-c1cc2c(s1)c1sc(CCCCCC)cc1n2CCCCCC` [Synthesis Example 2], in series [1], the “UV-vis: λmax” value stood at 1114 nm. In series [1] (in dichloromethane), the “λmax (nm) (solution)” value is listed as 1076 nm. Also, the “λmax (nm) (thin film)” value in series [2] amounted to 1120 nm.
The corresponding values for `CCCCCCOc1cc(-c2c3nsnc3c(-c3cc(OCCCCCC)c(-c4cc5c(s4)c4sc(CCCCCC)cc4n5CCCCCC)s3)c3nc4c5ccccc5c5ccccc5c4nc23)sc1-c1cc2c(s1)c1sc(CCCCCC)cc1n2CCCCCC` [Synthesis Example 4] are 1020 nm, 1020 nm and 1058 nm.
As to `CCCCCCCCOc1ccc(N(c2ccc(OCCCCCCCC)cc2)c2ccc(-c3ccc(-c4c5c(c(-c6ccc(-c7ccc(N(c8ccc(OCCCCCCCC)cc8)c8ccc(OCCCCCCCC)cc8)cc7)s6)c6nsnc46)N=S=N5)s3)cc2)cc1` [Comparative Synthesis Example 1, reference compound], the “λmax (nm) (solution)” value in series [1] (in toluene) worked out at 920 nm.

These data come from US20210343946A1, “INFRARED ABSORBERS, INFRARED ABSORBING/BLOCKING FILMS AND PHOTOELECTRIC DEVICES AND ORGANIC SENSORS AND ELECTRONIC DEVICES” (Samsung Electronics Co., Ltd., priority 2020, published 2021).
